# Experimental data: publication PMC12667509, “Inhibition of Macrophage ARID3A Alleviates Myocardial Ischemia‐Reperfusion Injury After Heart Transplantation by Reducing THBS1/CD47 Signaling‐Mediated Neutrophil Extracellular Traps Formation” (Advanced Science, 2025)
# Molecular target: T1, ARID3A (Homo sapiens, UniProt Q99856)
# T1 construct: recombinant human protein immobilised on CM5 chip
# T1 sequence (Q99856 1-593): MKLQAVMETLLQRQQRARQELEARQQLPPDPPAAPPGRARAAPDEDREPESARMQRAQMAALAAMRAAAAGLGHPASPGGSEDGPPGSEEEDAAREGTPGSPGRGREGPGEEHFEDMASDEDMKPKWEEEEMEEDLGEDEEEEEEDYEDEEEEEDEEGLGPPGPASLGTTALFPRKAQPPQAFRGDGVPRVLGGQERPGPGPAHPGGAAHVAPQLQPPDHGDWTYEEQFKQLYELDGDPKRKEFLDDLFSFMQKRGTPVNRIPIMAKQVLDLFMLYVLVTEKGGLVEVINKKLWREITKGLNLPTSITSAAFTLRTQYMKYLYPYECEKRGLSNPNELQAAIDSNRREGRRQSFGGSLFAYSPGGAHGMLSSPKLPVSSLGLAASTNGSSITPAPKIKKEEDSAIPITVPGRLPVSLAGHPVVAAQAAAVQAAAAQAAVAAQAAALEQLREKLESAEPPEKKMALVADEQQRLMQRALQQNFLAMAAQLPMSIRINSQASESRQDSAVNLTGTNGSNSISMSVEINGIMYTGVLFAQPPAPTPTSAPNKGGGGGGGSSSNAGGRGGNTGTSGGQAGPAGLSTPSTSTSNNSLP
# Experiment: SPR (Biacore T200, CM5 chip, kinetic analysis)
# Type: binding
smiles,measurement,value
"C=C(CC(=O)OCCCCCCCC)C(=O)O [4‐OI, 4‐octyl itaconate]",Kd,7.64 µM
